The values below come from BindingDB's records for patent US20250221979 (Shouyao Holdings (Beijing) Co., 2025).

The target in this assay is S-adenosylmethionine synthase isoform type-2 (Homo sapiens, UniProt P31153). Nature of the assay: In Vitro Enzymatic Inhibition Activity Assay. On the procedure: Enzymatic activity assays of compounds of this patent against MAT2A (to detect half inhibitory concentration IC50 values of the compounds) were performed using the phosphate detection kit PiColorLockTM (ab270004, purchased from Abcam). This method utilized the principle that purified human MAT2A enzyme catalyzes the formation of S-adenosylmethionine (SAM) from L-methionine and ATP to release free phosphate, and used the spectrophotometric method to quantify phosphate, so as to determine the enzymatic activity of MAT2A. Compounds were diluted in a 10-fold gradient starting at 1 mM with 100% DMSO (for a total of 8 concentrations) and 2 μL of each concentration was added to 48 μL of reaction buffer (50 mM Tris-HCl PH 7.5, 50 mM KCl, 10 mM MgCl2, 0.01% Brij-35, 0.01% BSA, 1 mM DTT) and mixed well. The final diluted compound was prepared, and 5 μL of MAT2A enzyme (final concentration of 10 nM), 5 μL of ATP (final concentration of 50 μM), and 5 μL of L-methionine (final concentration of 100 μM) were added to each well of a 384-well plate (#3701, purchased from CORNING). After the 384-well plate was placed in the incubator at 23° C. for 6 h, 5 μL of PiColorLock reagent diluted Accelerator (dilution ratio 1:100) was added to each well, and the reaction was stopped by incubating in the incubator at 23° C. for 5 min. 2 μL of Stabiliser was added, the absorbance was read at 630 nm on BMG CLARIOstar, and the IC50 value of the compound was calculated by using GraphPad Prism software.
Sequence of S-adenosylmethionine synthase isoform type-2 (P31153 whole entry, canonical isoform): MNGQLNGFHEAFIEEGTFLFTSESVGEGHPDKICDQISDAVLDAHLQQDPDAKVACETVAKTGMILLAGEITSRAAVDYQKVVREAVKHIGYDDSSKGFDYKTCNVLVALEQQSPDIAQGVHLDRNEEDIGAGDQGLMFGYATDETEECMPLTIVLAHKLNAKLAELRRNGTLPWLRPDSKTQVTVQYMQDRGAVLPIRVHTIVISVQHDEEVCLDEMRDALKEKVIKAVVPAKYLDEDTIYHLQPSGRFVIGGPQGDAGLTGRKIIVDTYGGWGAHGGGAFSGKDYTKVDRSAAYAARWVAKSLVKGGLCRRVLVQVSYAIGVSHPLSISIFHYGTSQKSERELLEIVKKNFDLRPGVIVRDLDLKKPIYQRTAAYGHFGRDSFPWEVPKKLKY
The compound `COC(=O)c1c(N)c2ccc(OC(F)F)cc2n(-c2ccc(N)cc2)c1=O` [US20250221979, Example 320] yielded an IC50 of 1.19 nM.

The compound `COC(=O)c1c(N)c2ccc(OC(F)F)nc2n(-c2ccc([C@@H](C)O)cc2)c1=O` [US20250221979, Example 372] registered an IC50 of 1.96 nM.

In turn, `COC(=O)c1c(N)c2ncc(C3CC3)nc2n(-c2ccc(C(C)O)cc2)c1=O` (stereo not drawn) [US20250221979, Example 356] registered an IC50 of 1.19 nM.
